Measurements published in ChEMBL document CHEMBL1201862, “PubChem BioAssay data set” (2004).
One block for each compound: values may come before it. Calls of active or inactive are those of the source.

What was measured:
[1] = target: Multidrug resistance protein CDR1 (Candida albicans, UniProt P43071); assay: inhibition of Nile Red efflux via Candida CDR1 – S. cerevisiae AD1-8u, singleplex, Cherry Pick1 hits, dose response (AID 588606); type: functional
[2] = target: T1, High affinity choline transporter 1 (Homo sapiens, UniProt Q9GZV3); assay: human choline transporter blockers, potency – cell-based, 10-point CRC, membrane potential dye, dose response (AID 588401); type: functional;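 also: membrane potential dye fluorescence of choline-evoked depolarization via CHT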
T1 sequence (Q9GZV3 whole entry): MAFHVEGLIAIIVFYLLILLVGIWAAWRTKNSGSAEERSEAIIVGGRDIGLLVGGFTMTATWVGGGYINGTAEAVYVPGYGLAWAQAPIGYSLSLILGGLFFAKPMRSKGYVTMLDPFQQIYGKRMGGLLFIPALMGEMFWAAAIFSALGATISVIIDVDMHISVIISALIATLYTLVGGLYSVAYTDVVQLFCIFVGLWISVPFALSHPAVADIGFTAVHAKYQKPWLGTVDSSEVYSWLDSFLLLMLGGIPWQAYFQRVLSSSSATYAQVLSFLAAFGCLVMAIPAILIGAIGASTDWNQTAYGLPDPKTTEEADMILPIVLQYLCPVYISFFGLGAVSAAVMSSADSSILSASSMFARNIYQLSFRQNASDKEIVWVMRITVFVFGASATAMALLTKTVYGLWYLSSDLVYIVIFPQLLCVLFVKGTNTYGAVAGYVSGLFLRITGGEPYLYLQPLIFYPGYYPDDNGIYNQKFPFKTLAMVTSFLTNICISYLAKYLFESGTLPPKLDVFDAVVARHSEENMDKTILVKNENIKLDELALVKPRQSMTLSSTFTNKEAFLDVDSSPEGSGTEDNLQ

[3] = target: T1, High affinity choline transporter 1; assay: human choline transporter blockers, potency – cell-based, 5-point CRC, membrane potential dye, dose response (AID 504840); type: functional
[4] = target: Insulin-like growth factor 1 receptor (Homo sapiens, UniProt P08069); assay: Navigating the Kinome. Panel member name: IGF1R; type: functional
Insulin-like growth factor 1 receptor, sequence (P08069 31-736 limits assumed): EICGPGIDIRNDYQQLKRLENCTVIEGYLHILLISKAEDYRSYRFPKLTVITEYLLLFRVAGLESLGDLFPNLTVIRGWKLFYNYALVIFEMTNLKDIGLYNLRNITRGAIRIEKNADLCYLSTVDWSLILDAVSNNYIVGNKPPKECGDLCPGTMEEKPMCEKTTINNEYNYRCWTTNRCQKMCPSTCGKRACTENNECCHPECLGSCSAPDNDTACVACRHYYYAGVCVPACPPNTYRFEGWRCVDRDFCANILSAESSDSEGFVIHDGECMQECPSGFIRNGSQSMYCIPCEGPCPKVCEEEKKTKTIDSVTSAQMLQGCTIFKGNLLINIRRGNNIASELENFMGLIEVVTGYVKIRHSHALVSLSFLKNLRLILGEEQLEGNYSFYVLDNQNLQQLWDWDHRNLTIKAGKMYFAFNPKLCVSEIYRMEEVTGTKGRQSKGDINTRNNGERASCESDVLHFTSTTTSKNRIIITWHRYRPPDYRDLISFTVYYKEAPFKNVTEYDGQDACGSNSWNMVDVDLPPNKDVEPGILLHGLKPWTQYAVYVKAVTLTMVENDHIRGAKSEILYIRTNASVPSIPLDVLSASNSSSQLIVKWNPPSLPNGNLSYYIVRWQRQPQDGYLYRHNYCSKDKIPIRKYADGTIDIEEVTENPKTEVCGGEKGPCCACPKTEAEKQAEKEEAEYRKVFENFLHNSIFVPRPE
Insulin-like growth factor 1 receptor, sequence (P08069 741-1367 limits assumed): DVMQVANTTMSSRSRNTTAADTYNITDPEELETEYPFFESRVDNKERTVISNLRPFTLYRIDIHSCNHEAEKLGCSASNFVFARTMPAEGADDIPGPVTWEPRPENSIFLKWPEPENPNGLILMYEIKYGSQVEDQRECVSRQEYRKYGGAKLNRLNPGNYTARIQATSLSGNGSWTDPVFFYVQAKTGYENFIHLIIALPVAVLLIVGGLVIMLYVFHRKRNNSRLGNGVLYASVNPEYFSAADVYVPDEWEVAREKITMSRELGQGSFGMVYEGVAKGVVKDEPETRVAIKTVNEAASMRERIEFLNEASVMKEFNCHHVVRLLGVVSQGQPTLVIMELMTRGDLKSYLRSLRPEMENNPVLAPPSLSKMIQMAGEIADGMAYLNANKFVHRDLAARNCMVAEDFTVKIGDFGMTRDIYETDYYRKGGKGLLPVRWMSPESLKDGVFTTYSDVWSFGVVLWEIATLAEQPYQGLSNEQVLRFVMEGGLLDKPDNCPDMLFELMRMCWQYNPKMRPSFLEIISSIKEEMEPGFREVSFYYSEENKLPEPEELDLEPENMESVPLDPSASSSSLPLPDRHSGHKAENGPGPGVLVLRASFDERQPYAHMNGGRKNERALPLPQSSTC

[5] = target: Cyclin-dependent kinase 1 (Homo sapiens, UniProt P06493); type: functional;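 also: Kinome-wide panel profiling, with the target listed as panel member CDC2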
Cyclin-dependent kinase 1, sequence (P06493 whole entry): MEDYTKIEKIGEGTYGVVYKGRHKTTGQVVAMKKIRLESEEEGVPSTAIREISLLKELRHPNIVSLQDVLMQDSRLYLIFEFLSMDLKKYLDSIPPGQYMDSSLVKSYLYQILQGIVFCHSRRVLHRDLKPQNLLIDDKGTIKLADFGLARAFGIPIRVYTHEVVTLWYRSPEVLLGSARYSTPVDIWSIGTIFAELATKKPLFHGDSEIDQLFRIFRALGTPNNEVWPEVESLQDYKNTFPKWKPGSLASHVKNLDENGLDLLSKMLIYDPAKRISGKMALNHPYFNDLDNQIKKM

[6] = target: Vascular endothelial growth factor receptor 3 (Homo sapiens, UniProt P35916); type: functional;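 also: value from a kinome-wide profiling panel, with FLT4 as the panel member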
Vascular endothelial growth factor receptor 3, sequence (P35916 whole entry): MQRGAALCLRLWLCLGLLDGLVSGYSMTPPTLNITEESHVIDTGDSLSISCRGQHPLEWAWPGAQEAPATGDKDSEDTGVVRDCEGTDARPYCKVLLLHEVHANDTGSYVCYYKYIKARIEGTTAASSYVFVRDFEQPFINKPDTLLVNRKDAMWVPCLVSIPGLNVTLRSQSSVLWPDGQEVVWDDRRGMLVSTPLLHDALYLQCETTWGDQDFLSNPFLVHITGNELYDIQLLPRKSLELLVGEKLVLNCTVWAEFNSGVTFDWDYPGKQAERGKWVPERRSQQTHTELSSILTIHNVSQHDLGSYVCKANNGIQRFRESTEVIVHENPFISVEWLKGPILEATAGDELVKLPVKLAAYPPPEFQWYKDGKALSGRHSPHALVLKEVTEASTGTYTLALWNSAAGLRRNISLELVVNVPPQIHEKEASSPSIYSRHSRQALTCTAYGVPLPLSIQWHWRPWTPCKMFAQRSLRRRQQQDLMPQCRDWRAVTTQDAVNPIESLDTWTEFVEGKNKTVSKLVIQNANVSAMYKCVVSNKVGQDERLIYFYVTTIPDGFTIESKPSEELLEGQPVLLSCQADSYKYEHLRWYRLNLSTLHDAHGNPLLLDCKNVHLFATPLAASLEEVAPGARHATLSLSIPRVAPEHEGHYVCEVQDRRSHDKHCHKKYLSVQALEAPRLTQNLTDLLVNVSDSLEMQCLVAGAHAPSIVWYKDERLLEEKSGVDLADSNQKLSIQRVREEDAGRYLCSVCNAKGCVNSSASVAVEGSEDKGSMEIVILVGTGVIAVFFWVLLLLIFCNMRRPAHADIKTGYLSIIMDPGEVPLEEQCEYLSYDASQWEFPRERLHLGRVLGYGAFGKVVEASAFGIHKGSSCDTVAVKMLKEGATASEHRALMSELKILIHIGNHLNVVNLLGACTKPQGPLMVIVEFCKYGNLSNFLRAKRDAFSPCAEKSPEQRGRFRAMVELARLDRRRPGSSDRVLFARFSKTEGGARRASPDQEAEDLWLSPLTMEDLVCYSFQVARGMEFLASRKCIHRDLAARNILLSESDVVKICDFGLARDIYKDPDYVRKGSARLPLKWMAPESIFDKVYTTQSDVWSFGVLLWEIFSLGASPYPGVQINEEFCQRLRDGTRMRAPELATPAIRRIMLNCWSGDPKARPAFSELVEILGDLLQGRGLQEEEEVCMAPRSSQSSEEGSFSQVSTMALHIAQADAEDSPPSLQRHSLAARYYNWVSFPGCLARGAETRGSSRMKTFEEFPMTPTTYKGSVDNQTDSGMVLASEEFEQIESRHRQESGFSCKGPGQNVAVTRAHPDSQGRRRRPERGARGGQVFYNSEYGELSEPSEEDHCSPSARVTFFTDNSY

[7] = target: T2, Zinc finger protein mex-5 (Caenorhabditis elegans, UniProt Q9XUB2); assay: potency of MEX-5 RNA-binding blockers – biochemical, C. elegans, fluorescence polarization, dose response (AID 1960)
T2 sequence (Q9XUB2 whole entry): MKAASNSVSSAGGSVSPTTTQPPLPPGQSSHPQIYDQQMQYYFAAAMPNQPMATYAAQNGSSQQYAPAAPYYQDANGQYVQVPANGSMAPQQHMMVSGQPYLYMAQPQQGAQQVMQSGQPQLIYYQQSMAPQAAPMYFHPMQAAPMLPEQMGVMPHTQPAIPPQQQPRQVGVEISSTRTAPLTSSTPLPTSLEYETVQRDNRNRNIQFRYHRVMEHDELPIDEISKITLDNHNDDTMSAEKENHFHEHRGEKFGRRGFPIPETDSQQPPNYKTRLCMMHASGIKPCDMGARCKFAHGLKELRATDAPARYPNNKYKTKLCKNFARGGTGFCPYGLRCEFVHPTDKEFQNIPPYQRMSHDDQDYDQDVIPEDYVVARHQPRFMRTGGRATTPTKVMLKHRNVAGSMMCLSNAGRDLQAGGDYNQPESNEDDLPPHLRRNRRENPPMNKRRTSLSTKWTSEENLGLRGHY

HEK293 = assay: EBV LMP1 TES2 canonical NF-kB signalling blockers – cell-based, HEK293, luciferase, cherry-pick, dose response (AID 588343); type: functional; conditions: Homo sapiens
[8] = Trypanosoma cruzi growth suppression in host cells – NIH3T3 host cells, beta-gal luminescence, confirmation (AID 2044); type: functional, cell-based;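 also: intracellular parasites grown in NIH/3T3 mouse fibroblasts as host cells; luminescent beta-galactosidase reporter signal from transgenic T. cruzi replicating inside host cells; inhibitors lower the luminescence signal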
[9] = target: T3, RNA-binding protein pos-1 (Caenorhabditis elegans, UniProt G5EF15); assay: disruptors of C. elegans POS-1 RNA interaction – biochemical, fluorescence polarization, dose response (AID 1964);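 also: purified POS-1 fused to maltose binding protein made in E. coli; potency of compounds blocking POS-1 binding to fluorescent RNA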
T3 sequence (G5EF15 whole entry): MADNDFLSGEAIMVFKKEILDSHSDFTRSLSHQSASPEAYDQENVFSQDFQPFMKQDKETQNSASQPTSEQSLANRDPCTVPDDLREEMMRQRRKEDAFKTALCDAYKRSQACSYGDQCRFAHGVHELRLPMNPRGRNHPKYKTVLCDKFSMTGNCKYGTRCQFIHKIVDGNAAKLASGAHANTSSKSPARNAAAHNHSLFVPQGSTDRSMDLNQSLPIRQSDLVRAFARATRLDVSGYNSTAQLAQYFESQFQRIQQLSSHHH

[10] = NIH3T3 cell viability loss – ATP luminescence, mouse fibroblasts, counter-screen, dose response (AID 2010); type: functional, cell-based;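 also: cells exposed to compound for about 90 hours before reading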
[11] = target: Latent membrane protein 1 (Human herpesvirus 4 (strain B95-8), UniProt P03230); assay: LMP1 TES1 pathway selectivity over dsRED control – imaging, HEK293T, dual-color eGFP/dsRED, cherry-picks, selectivity assay for LMP1 NF-kB inhibitor project, dose response (AID 588398); type: functional, cell-based
Latent membrane protein 1, sequence (P03230 whole entry): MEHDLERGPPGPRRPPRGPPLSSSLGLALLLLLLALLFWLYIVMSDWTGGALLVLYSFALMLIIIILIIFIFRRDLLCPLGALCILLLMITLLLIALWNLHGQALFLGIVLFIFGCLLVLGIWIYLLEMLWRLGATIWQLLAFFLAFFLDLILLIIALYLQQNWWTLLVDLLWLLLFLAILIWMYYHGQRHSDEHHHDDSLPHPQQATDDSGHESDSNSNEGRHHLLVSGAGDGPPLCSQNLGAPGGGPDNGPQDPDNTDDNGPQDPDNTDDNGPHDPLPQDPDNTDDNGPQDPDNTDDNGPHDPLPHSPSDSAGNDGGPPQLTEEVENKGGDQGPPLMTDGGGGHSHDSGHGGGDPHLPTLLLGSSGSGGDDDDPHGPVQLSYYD

[12] = HEK-293T cell viability reduction – luminescence, B-cell screen hits, cytotoxicity control for BCR NF-kB inhibitor project, dose response (AID 489021); type: functional, cell-based;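 also: HEK-293T cells carrying an NF-kB luciferase reporter; cells exposed to compound for about 14 hours before viability readout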
Protein skinhead-1 = target: T4, Protein skinhead-1 (Caenorhabditis elegans, UniProt P34707); type: functional
T4 sequence (P34707 whole entry): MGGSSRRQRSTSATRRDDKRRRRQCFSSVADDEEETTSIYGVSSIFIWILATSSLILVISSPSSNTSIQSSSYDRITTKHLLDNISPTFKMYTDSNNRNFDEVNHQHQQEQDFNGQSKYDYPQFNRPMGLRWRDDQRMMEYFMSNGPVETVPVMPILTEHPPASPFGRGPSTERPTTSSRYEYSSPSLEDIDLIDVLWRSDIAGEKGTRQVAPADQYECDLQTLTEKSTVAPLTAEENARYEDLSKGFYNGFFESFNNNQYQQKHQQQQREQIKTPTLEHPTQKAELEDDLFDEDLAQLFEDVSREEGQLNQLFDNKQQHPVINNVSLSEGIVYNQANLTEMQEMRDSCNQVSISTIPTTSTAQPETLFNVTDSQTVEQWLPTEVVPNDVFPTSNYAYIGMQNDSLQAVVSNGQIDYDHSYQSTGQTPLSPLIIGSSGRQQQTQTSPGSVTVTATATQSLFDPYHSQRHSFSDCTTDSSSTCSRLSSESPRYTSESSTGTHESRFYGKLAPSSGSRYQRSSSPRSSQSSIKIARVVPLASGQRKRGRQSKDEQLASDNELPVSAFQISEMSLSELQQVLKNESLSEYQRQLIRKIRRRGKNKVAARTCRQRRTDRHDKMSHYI

Multidrug resistance protein CDR1, sequence (P43071 whole entry, looked up): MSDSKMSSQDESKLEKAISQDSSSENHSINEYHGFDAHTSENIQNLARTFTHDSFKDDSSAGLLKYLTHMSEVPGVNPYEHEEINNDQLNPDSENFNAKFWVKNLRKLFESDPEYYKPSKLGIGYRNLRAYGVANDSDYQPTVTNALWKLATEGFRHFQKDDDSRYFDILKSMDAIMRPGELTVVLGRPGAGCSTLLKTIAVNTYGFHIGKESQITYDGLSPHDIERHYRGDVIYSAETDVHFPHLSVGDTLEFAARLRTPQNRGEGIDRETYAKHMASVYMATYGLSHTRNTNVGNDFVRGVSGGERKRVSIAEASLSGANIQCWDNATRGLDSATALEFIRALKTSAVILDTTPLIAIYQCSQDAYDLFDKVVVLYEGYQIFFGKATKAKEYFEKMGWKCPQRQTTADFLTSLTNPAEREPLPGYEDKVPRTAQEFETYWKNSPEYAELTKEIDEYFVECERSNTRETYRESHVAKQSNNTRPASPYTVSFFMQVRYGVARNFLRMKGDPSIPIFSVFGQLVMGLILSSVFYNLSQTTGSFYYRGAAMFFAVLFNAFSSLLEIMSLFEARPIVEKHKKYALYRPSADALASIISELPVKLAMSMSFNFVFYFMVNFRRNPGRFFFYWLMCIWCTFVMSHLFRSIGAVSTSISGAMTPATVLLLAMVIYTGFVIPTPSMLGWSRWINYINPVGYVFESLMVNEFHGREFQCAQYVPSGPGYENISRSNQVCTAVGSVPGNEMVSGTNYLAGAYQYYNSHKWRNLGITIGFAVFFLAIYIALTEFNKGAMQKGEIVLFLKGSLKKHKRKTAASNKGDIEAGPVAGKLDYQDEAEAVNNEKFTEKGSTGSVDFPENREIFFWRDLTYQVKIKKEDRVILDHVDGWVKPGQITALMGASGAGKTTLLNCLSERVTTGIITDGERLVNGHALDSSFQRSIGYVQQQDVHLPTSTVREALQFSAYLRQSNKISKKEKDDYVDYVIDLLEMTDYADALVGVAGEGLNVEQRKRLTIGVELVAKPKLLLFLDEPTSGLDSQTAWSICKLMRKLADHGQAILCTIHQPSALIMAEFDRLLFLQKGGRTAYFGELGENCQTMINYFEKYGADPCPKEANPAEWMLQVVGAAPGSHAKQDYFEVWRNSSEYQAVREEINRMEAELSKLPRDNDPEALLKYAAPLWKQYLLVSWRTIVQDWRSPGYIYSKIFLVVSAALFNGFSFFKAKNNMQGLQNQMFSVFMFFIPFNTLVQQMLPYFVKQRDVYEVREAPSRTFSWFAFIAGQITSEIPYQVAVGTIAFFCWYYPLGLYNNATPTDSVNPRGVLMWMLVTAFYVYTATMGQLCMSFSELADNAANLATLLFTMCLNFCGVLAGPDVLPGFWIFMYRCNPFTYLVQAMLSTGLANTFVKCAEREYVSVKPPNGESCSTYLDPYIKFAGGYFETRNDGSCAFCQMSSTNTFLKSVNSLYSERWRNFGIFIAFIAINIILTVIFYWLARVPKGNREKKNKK

Structure (SMILES): O=C(Nc1ccnc(-c2cccnc2)n1)c1cccc(Cl)c1Cl
- EC50 [1]: 117 nM (active)

- IC50 [2]: 4.47 µM (active)
- IC50 [3]: 7.76 µM (active)
Structure (SMILES): CCCCn1nc2cc(C(=O)N[C@H](C)C3CCCCC3)ccc2c1OCC

- Ki [4]: > 1 µM (inactive)
- Ki [5]: > 7.94 µM (inactive)
- Ki [6]: 316 nM (active)
Structure (SMILES): Cc1cc(C)c(C=C2C(=O)Nc3ccccc32)[nH]1

Structure (SMILES): CCc1ccc(/C=C2\SC(=S)N(CCCC(=O)Nc3ccccn3)C2=O)cc1
- EC50 [7]: 24.6 µM (active)
- AC50 (HEK293): 4.92 µM (active)
- EC50 [8]: 1.83 µM (active)
- EC50 [9]: 27.1 µM (active)
- EC50 [10]: 54.8 µM (active)
- AC50 [11]: 16.2 µM (active)
- IC50 [12]: > 80 µM (inactive)
- IC50 (Protein skinhead-1): > 100 µM (inactive)
